Experimental data: PubChem BioAssay AID1963829 (Molecular Pharmacology Branch, DTP, NCI, 2024)

Tested on: 935938-334-R-J1-PDC complex spheroid viability
Test: Anticancer human tumor 935938-334-R-J1-PDC patient-derived small intestine adenocarcinoma cell line growth inhibition [POLQ]
Conditions: for IC50: curve of first compound; for viability, T/C: stronger effect = lower value
Procedure, shortened: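 Patient-derived tumour cells were co-cultured with HUVEC and mesenchymal stem cells as multicellular spheroids at 37 °C. They were treated with POLQ inhibitors (novobiocin, ART-558, RP6685) alone or combined with other agents. Top concentrations were at or near clinical Cmax (otherwise 10 microM; SN-38 at 1 microM), decreasing in half-log steps.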

[1] = second compound 0.0316 µM, first compound 0.0316 µM
[2] = second compound 0.0316 µM, first compound 0.1 µM
[3] = second compound 0.1 µM, first compound 0.0316 µM
[4] = second compound 0.1 µM, first compound 0.1 µM
[5] = second compound 0.316 µM, first compound 0.0316 µM
[6] = second compound 0.316 µM, first compound 0.1 µM
[7] = second compound 1 µM, first compound 0.0316 µM
[8] = second compound 1 µM, first compound 0.1 µM
[9] = second compound 3.16 µM, first compound 0.0316 µM
[10] = second compound 3.16 µM, first compound 0.1 µM
[11] = second compound 10 µM, first compound 0.0316 µM
[12] = second compound 10 µM, first compound 0.1 µM
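Also: spheroids exposed to drugs for seven days before viability read.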
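For viability, T/C in this document: 100% = DMSO vehicle control wells.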

**Q.** How did the IC50 (second compound 0.0316 µM) turn out when `CC[C@@]1(O)C(=O)OCc2c1cc1n(c2=O)Cc2cc3c(CN(C)C)c(O)ccc3nc2-1` + COC1C(OC(N)=O)C(O)C(Oc2ccc3c(O)c(NC(=O)c4ccc(O)c(CC=C(C)C)c4)c(=O)oc3c2C)OC1(C)C was run?
**A.** The IC50 was over 100 nM.

**Q.** And the IC50 (second compound 0.1 µM)?
**A.** Its IC50 is 80.8 nM.

**Q.** What about the IC50 (second compound 0.316 µM) of the same molecule?
**A.** Its IC50 is 93.3 nM.

**Q.** And the IC50 (second compound 1 µM)?
**A.** The IC50 was 90.3 nM.

**Q.** What about the IC50 (second compound 3.16 µM) of the same molecule?
**A.** The IC50 was 91.5 nM.

**Q.** What about the IC50 (second compound 10 µM) of the same molecule?
**A.** The IC50 was over 100 nM.

**Q.** And the viability, T/C (second compound 0.0316 µM, first compound 0.000316 µM)?
**A.** The viability, T/C was 90.7%.

**Q.** And the viability, T/C (second compound 0.0316 µM, first compound 0.001 µM)?
**A.** The viability, T/C was 81.6%.

**Q.** What about the viability, T/C (second compound 0.0316 µM, first compound 0.00316 µM) of the same molecule?
**A.** Its viability, T/C is 98.1%.

**Q.** What about the viability, T/C (second compound 0.0316 µM, first compound 0.01 µM) of the same molecule?
**A.** The viability, T/C was 92.1%.

**Q.** And the viability, T/C [1]?
**A.** The viability, T/C was 86.1%.

**Q.** What about the viability, T/C [2] of the same molecule?
**A.** Its viability, T/C is 56.5%.

**Q.** And the viability, T/C (second compound 0.1 µM, first compound 0.000316 µM)?
**A.** Its viability, T/C is 94.2%.

**Q.** And the viability, T/C (second compound 0.1 µM, first compound 0.001 µM)?
**A.** The viability, T/C was 81.4%.

**Q.** And the viability, T/C (second compound 0.1 µM, first compound 0.00316 µM)?
**A.** The viability, T/C was 100%.

**Q.** And the viability, T/C (second compound 0.1 µM, first compound 0.01 µM)?
**A.** Its viability, T/C is 90.9%.

**Q.** What about the viability, T/C [3] of the same molecule?
**A.** The viability, T/C was 79%.

**Q.** What about the viability, T/C [4] of the same molecule?
**A.** The viability, T/C was 43%.

**Q.** And the viability, T/C (second compound 0.316 µM, first compound 0.000316 µM)?
**A.** The viability, T/C was 94.7%.

**Q.** And the viability, T/C (second compound 0.316 µM, first compound 0.001 µM)?
**A.** The viability, T/C was 72.9%.

**Q.** And the viability, T/C (second compound 0.316 µM, first compound 0.00316 µM)?
**A.** The viability, T/C was 103%.

**Q.** And the viability, T/C (second compound 0.316 µM, first compound 0.01 µM)?
**A.** Its viability, T/C is 97.7%.

**Q.** And the viability, T/C [5]?
**A.** The viability, T/C was 94.8%.

**Q.** And the viability, T/C [6]?
**A.** The viability, T/C was 47.2%.

**Q.** What about the viability, T/C (second compound 1 µM, first compound 0.000316 µM) of the same molecule?
**A.** The viability, T/C was 109%.

**Q.** What about the viability, T/C (second compound 1 µM, first compound 0.001 µM) of the same molecule?
**A.** Its viability, T/C is 83.1%.

**Q.** What about the viability, T/C (second compound 1 µM, first compound 0.00316 µM) of the same molecule?
**A.** Its viability, T/C is 76.4%.

**Q.** And the viability, T/C (second compound 1 µM, first compound 0.01 µM)?
**A.** The viability, T/C was 74.8%.

**Q.** What about the viability, T/C [7] of the same molecule?
**A.** The viability, T/C was 97.3%.

**Q.** What about the viability, T/C [8] of the same molecule?
**A.** Its viability, T/C is 46.3%.

**Q.** And the viability, T/C (second compound 3.16 µM, first compound 0.000316 µM)?
**A.** The viability, T/C was 127%.

**Q.** What about the viability, T/C (second compound 3.16 µM, first compound 0.001 µM) of the same molecule?
**A.** Its viability, T/C is 76.6%.

**Q.** And the viability, T/C (second compound 3.16 µM, first compound 0.00316 µM)?
**A.** Its viability, T/C is 79.3%.

**Q.** What about the viability, T/C (second compound 3.16 µM, first compound 0.01 µM) of the same molecule?
**A.** The viability, T/C was 77%.

**Q.** What about the viability, T/C [9] of the same molecule?
**A.** Its viability, T/C is 104%.

**Q.** What about the viability, T/C [10] of the same molecule?
**A.** Its viability, T/C is 46.4%.

**Q.** What about the viability, T/C (second compound 10 µM, first compound 0.000316 µM) of the same molecule?
**A.** The viability, T/C was 109%.

**Q.** And the viability, T/C (second compound 10 µM, first compound 0.001 µM)?
**A.** The viability, T/C was 133%.

**Q.** And the viability, T/C (second compound 10 µM, first compound 0.00316 µM)?
**A.** Its viability, T/C is 89.3%.

**Q.** And the viability, T/C (second compound 10 µM, first compound 0.01 µM)?
**A.** The viability, T/C was 67.2%.

**Q.** And the viability, T/C [11]?
**A.** The viability, T/C was 71.7%.

**Q.** And the viability, T/C [12]?
**A.** The viability, T/C was 49.3%.

**Q.** For `O=c1[nH]cc(F)c(=O)[nH]1` + Cc1cccc(N(C)C(=O)C2C(O)CCN2c2nc(C)cc(C(F)(F)F)c2C#N)c1, which IC50 (second compound 0.0316 µM) is on record?
**A.** The IC50 was over 10000 nM.

**Q.** And the IC50 (second compound 0.1 µM)?
**A.** The IC50 was over 10000 nM.

**Q.** What about the IC50 (second compound 0.316 µM) of the same molecule?
**A.** Its IC50 is over 10000 nM.

**Q.** What about the IC50 (second compound 1 µM) of the same molecule?
**A.** Its IC50 is over 10000 nM.

**Q.** What about the IC50 (second compound 3.16 µM) of the same molecule?
**A.** The IC50 was over 10000 nM.

**Q.** And the IC50 (second compound 10 µM)?
**A.** Its IC50 is over 10000 nM.

**Q.** And the viability, T/C [1]?
**A.** The viability, T/C was 131%.

**Q.** And the viability, T/C [2]?
**A.** The viability, T/C was 113%.

**Q.** And the viability, T/C (second compound 0.0316 µM, first compound 0.316 µM)?
**A.** Its viability, T/C is 94.2%.

**Q.** What about the viability, T/C (second compound 0.0316 µM, first compound 1 µM) of the same molecule?
**A.** Its viability, T/C is 84%.

**Q.** And the viability, T/C (second compound 0.0316 µM, first compound 3.16 µM)?
**A.** The viability, T/C was 74.2%.

**Q.** And the viability, T/C (second compound 0.0316 µM, first compound 10 µM)?
**A.** Its viability, T/C is 56.1%.

**Q.** What about the viability, T/C [3] of the same molecule?
**A.** The viability, T/C was 106%.

**Q.** What about the viability, T/C [4] of the same molecule?
**A.** The viability, T/C was 127%.

**Q.** What about the viability, T/C (second compound 0.1 µM, first compound 0.316 µM) of the same molecule?
**A.** The viability, T/C was 93%.

**Q.** And the viability, T/C (second compound 0.1 µM, first compound 1 µM)?
**A.** Its viability, T/C is 76.7%.

**Q.** What about the viability, T/C (second compound 0.1 µM, first compound 3.16 µM) of the same molecule?
**A.** Its viability, T/C is 67.4%.

**Q.** What about the viability, T/C (second compound 0.1 µM, first compound 10 µM) of the same molecule?
**A.** Its viability, T/C is 67.7%.

**Q.** And the viability, T/C [5]?
**A.** Its viability, T/C is 84%.

**Q.** What about the viability, T/C [6] of the same molecule?
**A.** The viability, T/C was 122%.

**Q.** And the viability, T/C (second compound 0.316 µM, first compound 0.316 µM)?
**A.** The viability, T/C was 124%.

**Q.** What about the viability, T/C (second compound 0.316 µM, first compound 1 µM) of the same molecule?
**A.** The viability, T/C was 82.4%.

**Q.** What about the viability, T/C (second compound 0.316 µM, first compound 3.16 µM) of the same molecule?
**A.** Its viability, T/C is 78%.

**Q.** What about the viability, T/C (second compound 0.316 µM, first compound 10 µM) of the same molecule?
**A.** The viability, T/C was 68.2%.

**Q.** And the viability, T/C [7]?
**A.** The viability, T/C was 110%.

**Q.** And the viability, T/C [8]?
**A.** The viability, T/C was 94.9%.

**Q.** What about the viability, T/C (second compound 1 µM, first compound 0.316 µM) of the same molecule?
**A.** The viability, T/C was 122%.

**Q.** What about the viability, T/C (second compound 1 µM, first compound 1 µM) of the same molecule?
**A.** The viability, T/C was 91.7%.

**Q.** What about the viability, T/C (second compound 1 µM, first compound 3.16 µM) of the same molecule?
**A.** The viability, T/C was 73.7%.

**Q.** And the viability, T/C (second compound 1 µM, first compound 10 µM)?
**A.** The viability, T/C was 64%.

**Q.** And the viability, T/C [9]?
**A.** Its viability, T/C is 120%.

**Q.** And the viability, T/C [10]?
**A.** The viability, T/C was 126%.

**Q.** What about the viability, T/C (second compound 3.16 µM, first compound 0.316 µM) of the same molecule?
**A.** Its viability, T/C is 97.5%.

**Q.** What about the viability, T/C (second compound 3.16 µM, first compound 1 µM) of the same molecule?
**A.** Its viability, T/C is 78.3%.

**Q.** What about the viability, T/C (second compound 3.16 µM, first compound 3.16 µM) of the same molecule?
**A.** Its viability, T/C is 65.3%.

**Q.** And the viability, T/C (second compound 3.16 µM, first compound 10 µM)?
**A.** Its viability, T/C is 67.2%.

**Q.** What about the viability, T/C [11] of the same molecule?
**A.** The viability, T/C was 99.1%.

**Q.** What about the viability, T/C [12] of the same molecule?
**A.** The viability, T/C was 142%.

**Q.** What about the viability, T/C (second compound 10 µM, first compound 0.316 µM) of the same molecule?
**A.** The viability, T/C was 87.1%.

**Q.** And the viability, T/C (second compound 10 µM, first compound 1 µM)?
**A.** Its viability, T/C is 95%.

**Q.** What about the viability, T/C (second compound 10 µM, first compound 3.16 µM) of the same molecule?
**A.** Its viability, T/C is 68%.

**Q.** And the viability, T/C (second compound 10 µM, first compound 10 µM)?
**A.** The viability, T/C was 65.9%.
